# Patent publication US4112097A, “Antihypertensive agents” (Abbott Laboratories, priority 1977, dated 1978)
# Structures can show the parent of a compound that is named as a salt. Where two headings read alike, the source gives them in different places.
# Experiments:
# [1] = tested on: spontaneously hypertensive (SH) rats; assay: Antihypertensive effect (blood pressure and heart rate) in spontaneously hypertensive rats; assay type: in vivo, rat; details: for Percent Change BP (blood pressure) / Percent Change HR (heart rate): N=4, mean
# Description: The screening is conducted as follows:
# Male spontaneously hypertensive (SH) rats are trained to be restrained in a wire mesh cylinder in a warming box, at least two training cycles being conducted before testing. The rats are warmed for about 1/2 hour period to blood pressure measurement, the warming box being maintained at a constant temperature of 36° C.
# An occluding cuff attached to the programed sphymomanometer is placed near the base of the tail of each rat and the pressure in the cuff is increased automatically from 0 to 250 milimeters of mercury (mm Hg) at a rate of 10 mm Hg per second. The total time for each cycle of inflation and deflation of the cuff is 50 seconds and the interval between cycles is one minute.
# A photocell is placed distal to the cuff to record the pulses due to forward motion of blood flow with each heart beat. As the pressure in the cuff increases, the pulse disappears completely at a point where cuff pressure equals or exceeds the arterial blood pressure and it reappears during deflation at approximately the same pressure. Five interference free signals for deflation are recorded for each rat. Rats with a blood pressure of 180 mm Hg or more during the control period are used in the study. Blood pressure and heart rate readings are recorded on a model VII Grass polygraph at intervals of 1, 3, 5 and 24 hours after administration of the drug.
# physchem = details: water
# Description: The water in the filtrate was removed in vacuo and the residue weighed and found to be 16.7 mg.
# [2] = Acute intravenous toxicity in mice; assay type: in vivo, mouse; details: mouse, in vivo, iv, mice male and female, read-out: LD50 (95% Confidence Limits)
# mice (male and female) = assay: Acute intravenous toxicity in mice; assay type: in vivo, mouse; details: mice, administered within twenty minutes following preparation
# [3] = cited from earlier work
# [4] = background statement on prazosin; cited from earlier work
# [5] = intraperitoneal 0.3 mg/kg, 1 hour
# [6] = intraperitoneal 0.3 mg/kg, 3 hours
# [7] = intraperitoneal 0.3 mg/kg, 5 hours
# [8] = intraperitoneal 0.3 mg/kg, 24 hours
# [9] = intraperitoneal 1 mg/kg, 1 hour
# [10] = intraperitoneal 1 mg/kg, 3 hours
# [11] = intraperitoneal 1 mg/kg, 5 hours
# [12] = intraperitoneal 1 mg/kg, 24 hours
# [13] = intraperitoneal 3 mg/kg, 1 hour
# [14] = intraperitoneal 3 mg/kg, 3 hours
# [15] = intraperitoneal 3 mg/kg, 5 hours
# [16] = intraperitoneal 3 mg/kg, 24 hours
# [17] = intraperitoneal 10 mg/kg, 1 hour
# [18] = intraperitoneal 10 mg/kg, 3 hours
# [19] = intraperitoneal 10 mg/kg, 5 hours
# [20] = intraperitoneal 10 mg/kg, 24 hours
# [21] = intraperitoneal 30 mg/kg, 1 hour
# [22] = intraperitoneal 30 mg/kg, 3 hours
# [23] = intraperitoneal 30 mg/kg, 5 hours
# [24] = intraperitoneal 30 mg/kg, 24 hours
structure (smiles),measurement,setting,value
"COc1cc2nc(N3CCN(C(=O)C4CCCO4)CC3)nc(N)c2cc1OC (stereo not shown) [2[4-(Tetrahydro-2-Furoyl)Piperazinyl]-4-Amino-6,7-Dimethoxyquinazoline Hydrochloride]",duration of the effect (decrease in blood pressure),[1]; intraperitoneal 30 mg./kg.,greater than 24 hours
same,fall in blood pressure,"[1]; oral, 3 and 10 mg./kg., up to approximately",≤ 40%
same,solubility,physchem,590 mg/mL
same,LD50,[2]; injected 24 hours after formulation (B),253 mg/kg
same,LD50,[2]; injected immediately after formulation (A),259 mg/kg
same,toxicity in comparison to the compound of Formula I,mice (male and female),significantly lower toxicity than the compound of Formula I
"COc1cc2nc(N3CCN(C(=O)c4ccco4)CC3)nc(N)c2cc1OC [Formula I, 2-[4-(2-furoyl)-1-piperazine-1-yl]-4-amino-6,7-dimethoxyquinazoline, reference compound]",fall in blood pressure in words,"[3]; The Lancet, May 10, 1975",profound fall in blood pressure
same,toxicity in words,"[3]; The Lancet, May 10, 1975",significant toxicity
same,collapse with loss of consciousness,"[3]; following use of the drug, The Lancet and British Medical Journal, June 28, 1975",Sudden collapse with loss of consciousness for periods ranging from a few minutes to one hour
same,Percent Change BP (blood pressure),[1]; [5],-20.8%
same,Percent Change HR (heart rate),[1]; [5],-2.5%
same,Percent Change BP (blood pressure),[1]; [6],-18.3%
same,Percent Change HR (heart rate),[1]; [6],-0.5%
same,Percent Change BP (blood pressure),[1]; [7],-13.8%
same,Percent Change HR (heart rate),[1]; [7],-12.0%
same,Percent Change BP (blood pressure),[1]; [8],-4.3%
same,Percent Change HR (heart rate),[1]; [8],-5.0%
same,Percent Change BP (blood pressure),[1]; [9],-20.0%
same,Percent Change HR (heart rate),[1]; [9],2.8%
same,Percent Change BP (blood pressure),[1]; [10],-15.3%
same,Percent Change HR (heart rate),[1]; [10],1.8%
same,Percent Change BP (blood pressure),[1]; [11],-13.5%
same,Percent Change HR (heart rate),[1]; [11],10.5%
same,Percent Change BP (blood pressure),[1]; [12],3.5%
same,Percent Change HR (heart rate),[1]; [12],12.8%
same,Percent Change BP (blood pressure),[1]; [13],-45.0%
same,Percent Change HR (heart rate),[1]; [13],0.3%
same,Percent Change BP (blood pressure),[1]; [14],-31.5%
same,Percent Change HR (heart rate),[1]; [14],-6.5%
same,Percent Change BP (blood pressure),[1]; [15],-26.3%
same,Percent Change HR (heart rate),[1]; [15],-17.0%
same,Percent Change BP (blood pressure),[1]; [16],-2.3%
same,Percent Change HR (heart rate),[1]; [16],-4.0%
same,Percent Change BP (blood pressure),[1]; [17],-41.0%
same,Percent Change HR (heart rate),[1]; [17],5.8%
same,Percent Change BP (blood pressure),[1]; [18],-34.0%
same,Percent Change HR (heart rate),[1]; [18],14.8%
same,Percent Change BP (blood pressure),[1]; [19],-27.0%
same,Percent Change HR (heart rate),[1]; [19],7.3%
same,Percent Change BP (blood pressure),[1]; [20],-13.0%
same,Percent Change HR (heart rate),[1]; [20],-7.5%
same,Percent Change BP (blood pressure),[1]; [21],-43.3%
same,Percent Change HR (heart rate),[1]; [21],-1.8%
same,Percent Change BP (blood pressure),[1]; [22],-48.5%
same,Percent Change HR (heart rate),[1]; [22],4.8%
same,Percent Change BP (blood pressure),[1]; [23],-55.5%
same,Percent Change HR (heart rate),[1]; [23],3.5%
same,Percent Change BP (blood pressure),[1]; [24],-24.5%
same,Percent Change HR (heart rate),[1]; [24],-6.5%
same,Percent Change BP (blood pressure),"[1]; oral 0.03 mg/kg, 1 hour",-4.5%
same,Percent Change HR (heart rate),"[1]; oral 0.03 mg/kg, 1 hour",4.8%
same,Percent Change BP (blood pressure),"[1]; oral 0.03 mg/kg, 3 hours",-0.8%
same,Percent Change HR (heart rate),"[1]; oral 0.03 mg/kg, 3 hours",-9.3%
same,Percent Change BP (blood pressure),"[1]; oral 0.03 mg/kg, 5 hours",-11.5%
same,Percent Change HR (heart rate),"[1]; oral 0.03 mg/kg, 5 hours",-9.8%
same,Percent Change BP (blood pressure),"[1]; oral 0.03 mg/kg, 24 hours",1.3%
same,Percent Change HR (heart rate),"[1]; oral 0.03 mg/kg, 24 hours",-2.0%
same,Percent Change BP (blood pressure),"[1]; oral 0.1 mg/kg, 1 hour",-9.8%
same,Percent Change HR (heart rate),"[1]; oral 0.1 mg/kg, 1 hour",13.5%
same,Percent Change BP (blood pressure),"[1]; oral 0.1 mg/kg, 3 hours",-17.5%
same,Percent Change HR (heart rate),"[1]; oral 0.1 mg/kg, 3 hours",18.3%
same,Percent Change BP (blood pressure),"[1]; oral 0.1 mg/kg, 5 hours",-22.8%
same,Percent Change HR (heart rate),"[1]; oral 0.1 mg/kg, 5 hours",1.5%
same,Percent Change BP (blood pressure),"[1]; oral 0.1 mg/kg, 24 hours",-1.3%
same,Percent Change HR (heart rate),"[1]; oral 0.1 mg/kg, 24 hours",3.5%
same,Percent Change BP (blood pressure),"[1]; oral 0.3 mg/kg, 1 hour",-32.8%
same,Percent Change HR (heart rate),"[1]; oral 0.3 mg/kg, 1 hour",-5.5%
same,Percent Change BP (blood pressure),"[1]; oral 0.3 mg/kg, 3 hours",-33.8%
same,Percent Change HR (heart rate),"[1]; oral 0.3 mg/kg, 3 hours",-5.0%
same,Percent Change BP (blood pressure),"[1]; oral 0.3 mg/kg, 5 hours",-30.0%
same,Percent Change HR (heart rate),"[1]; oral 0.3 mg/kg, 5 hours",-13.8%
same,Percent Change BP (blood pressure),"[1]; oral 0.3 mg/kg, 24 hours",-12.3%
same,Percent Change HR (heart rate),"[1]; oral 0.3 mg/kg, 24 hours",3.0%
same,Percent Change BP (blood pressure),"[1]; oral 1 mg/kg, 1 hour",-31.8%
same,Percent Change HR (heart rate),"[1]; oral 1 mg/kg, 1 hour",2.0%
same,Percent Change BP (blood pressure),"[1]; oral 1 mg/kg, 3 hours",-17.8%
same,Percent Change HR (heart rate),"[1]; oral 1 mg/kg, 3 hours",6.8%
same,Percent Change BP (blood pressure),"[1]; oral 1 mg/kg, 5 hours",-19.5%
same,Percent Change HR (heart rate),"[1]; oral 1 mg/kg, 5 hours",-1.0%
same,Percent Change BP (blood pressure),"[1]; oral 1 mg/kg, 24 hours",-2.3%
same,Percent Change HR (heart rate),"[1]; oral 1 mg/kg, 24 hours",10.0%
same,Percent Change BP (blood pressure),"[1]; oral 3 mg/kg, 1 hour",-19.3%
same,Percent Change HR (heart rate),"[1]; oral 3 mg/kg, 1 hour",0.5%
same,Percent Change BP (blood pressure),"[1]; oral 3 mg/kg, 3 hours",-19.8%
same,Percent Change HR (heart rate),"[1]; oral 3 mg/kg, 3 hours",11.5%
same,Percent Change BP (blood pressure),"[1]; oral 3 mg/kg, 5 hours",-20.5%
same,Percent Change HR (heart rate),"[1]; oral 3 mg/kg, 5 hours",1.5%
same,Percent Change BP (blood pressure),"[1]; oral 3 mg/kg, 24 hours",5.3%
same,Percent Change HR (heart rate),"[1]; oral 3 mg/kg, 24 hours",6.0%
same,Percent Change BP (blood pressure),"[1]; oral 10 mg/kg, 1 hour",-23.8%
same,Percent Change HR (heart rate),"[1]; oral 10 mg/kg, 1 hour",3.0%
same,Percent Change BP (blood pressure),"[1]; oral 10 mg/kg, 3 hours",-22.3%
same,Percent Change HR (heart rate),"[1]; oral 10 mg/kg, 3 hours",12.3%
same,Percent Change BP (blood pressure),"[1]; oral 10 mg/kg, 5 hours",-22.0%
same,Percent Change HR (heart rate),"[1]; oral 10 mg/kg, 5 hours",-0.8%
same,Percent Change BP (blood pressure),"[1]; oral 10 mg/kg, 24 hours",-2.3%
same,Percent Change HR (heart rate),"[1]; oral 10 mg/kg, 24 hours",23.3%
same,Percent Change BP (blood pressure),"[1]; oral 30 mg/kg, 1 hour",-34.0%
same,Percent Change HR (heart rate),"[1]; oral 30 mg/kg, 1 hour",-3.8%
same,Percent Change BP (blood pressure),"[1]; oral 30 mg/kg, 3 hours",-31.3%
same,Percent Change HR (heart rate),"[1]; oral 30 mg/kg, 3 hours",-11.5%
same,Percent Change BP (blood pressure),"[1]; oral 30 mg/kg, 5 hours",-29.3%
same,Percent Change HR (heart rate),"[1]; oral 30 mg/kg, 5 hours",-14.8%
same,Percent Change BP (blood pressure),"[1]; oral 30 mg/kg, 24 hours",-14.5%
same,Percent Change HR (heart rate),"[1]; oral 30 mg/kg, 24 hours",-1.5%
same,solubility in words,[4],very low solubility
